Row | melting point | SMILES
1 | 169 to 171 °C | CC(=O)CCCC(=O)NS(=O)(=O)c1ccccc1NC(=O)c1ccc(C#Cc2cccc(C(F)(F)F)c2)cc1 [Example 2, 4-(3-Trifluoromethyl)phenylethynyl-N-(2-(5-ketohexanoylamino)-sulfonylphenyl)benzamide]
2 | 179 to 181 °C | CC(=O)CCCC(=O)NS(=O)(=O)c1ccccc1NC(=O)c1ccc(C#Cc2ccc(F)cc2)cc1 [Example 8, 4-(4-Fluoro)phenylethynyl-N-(2-(5-ketohexanoylamino)sulfonylphenyl)benzamide]
3 | 210 to 212 °C | CCCCCC(=O)NS(=O)(=O)c1ccccc1NC(=O)c1ccc(C#Cc2ccc(C(F)(F)F)cc2)cc1 [Example 4, 4-(4-Trifluoromethyl)phenylethynyl-N-(2-hexanoylaminosulfonylphenyl)benzamide]
4 | 183 to 186 °C | CCCCCC(=O)NS(=O)(=O)c1ccccc1NC(=O)c1ccc(C#Cc2cccc(F)c2)cc1 [Example 9, 4-(3-Fluoro)phenylethynyl-N-(2-hexanoylaminosulfonylphenyl)benzamide]
5 | 204 to 205 °C | CC(=O)CCCC(=O)NS(=O)(=O)c1ccccc1NC(=O)c1ccc(C#Cc2ccc(OC(F)(F)F)cc2)cc1 [Example 6, 4-(4-Trifluoromethoxy)phenylethynyl-N-(2-(5-ketohexanoylamino)-sulfonylphenyl)benzamide]
6 | 175 to 177 °C | CCCOCC(=O)NS(=O)(=O)c1ccccc1NC(=O)c1ccc(C#Cc2cccc(C(F)(F)F)c2)cc1 [Example 3, 4-(3-Trifluoromethyl)phenylethynyl-N-(2-(2-propyloxyacetylamino)sulfonylphenyl)benzamide]
7 | 194 to 196 °C | CCCCCC(=O)NS(=O)(=O)c1ccccc1NC(=O)c1ccc(C#Cc2cccc(C(F)(F)F)c2)cc1 [Example 1, 4-(3-Trifluoromethyl)phenylethynyl-N-(2-hexanoylaminosulfonylphenyl)benzamide]
8 | 197 to 199 °C | CCCCCC(=O)NS(=O)(=O)c1ccccc1NC(=O)c1ccc(C#Cc2ccc(OC(F)(F)F)cc2)cc1 [Example 5, 4-(4-Trifluoromethoxy)phenylethynyl-N-(2-hexanoylaminosulfonylphenyl)benzamide]
9 | 183 to 186 °C | CCCCCC(=O)NS(=O)(=O)c1ccccc1NC(=O)c1ccc(C#Cc2ccc(F)cc2)cc1 [Example 7, 4-(4-Fluoro)phenylethynyl-N-(2-hexanoylaminosulfonylphenyl)benzamide]

Reference: patent US6812252B2, “Acylsulfonamide derivatives” (Ajinomoto Co., Inc., priority 2000, dated 2004)
